In patent US12410163B2, “Compounds as GLP-IR agonists” (Terns Pharmaceuticals, Inc., priority 2022, dated 2025):

Assay: Passive permeability and efflux ratio (Caco-2)
Format: in vitro ADME
Details: human; for efflux ratio at 120 min, 5 μM: pH 7.4, Caco-2, efflux ratio = Papp (B-to-A)/Papp (A-to-B), read-out: ER; for Papp A→B at 120 min, 5 μM: Caco-2, 5 μM, pH 7.4, 120 minutes
Protocol: Caco-2 cells (clone C2BBe1) are obtained, e.g., from American Type Culture Collection (Manassas, VA). Cell monolayers are grown to confluence on collagen-coated, microporous membranes in 12-well assay plates. The permeability assay buffer is Hanks' balanced salt solution containing 10 mM HEPES and 15 mM glucose at a pH of 7.4. The buffer in the receiver chamber also contains 1% bovine serum albumin. The dosing solution concentration is 5 μM of test article in the assay buffer. Cell monolayers are dosed on the apical side (A-to-B) or basolateral side (B-to-A) and incubated at 37° C. with 5% CO2 in a humidified incubator. Samples are taken from the donor and receiver chambers at 120 minutes. Each determination is performed in duplicate. The flux of lucifer yellow is also measured post-experimentally for each monolayer to ensure no damage is inflicted to the cell monolayers during the flux period. All samples are assayed by LC-MS/MS using electrospray ionization. The apparent permeability (Papp) and percent recovery were calculated as follows: Papp=(dCr/dt)×Vr/(A×CA) (1) Percent Recovery=100×((Vr×Cr^final)+(Vd×Cd^final))/(Vd×CN) (2), where, dCr/dt is the slope of the cumulative receiver concentration versus time in μM s^−1; Vr is the volume of the receiver compartment in cm^3; Vd is the volume of the donor compartment in cm^3; A is the area of the insert (1.13 cm^2 for 12-well); CA is the average of the nominal dosing concentration and the measured 120-minute donor concentration in μM; CN is the nominal concentration of the dosing solution in μM; Cr^final is the cumulative receiver concentration in μM at the end of the incubation period; Cd^final is the concentration of the donor in μM at the end of the incubation period. Efflux ratio (ER) is defined as Papp (B-to-A)/Papp (A-to-B). Rat Pharmacokinetics
Caco-2 cells (clone C2BBe1) were obtained from American Type Culture Collection (Manassas, VA). Cell monolayers were grown to confluence on collagen-coated, microporous membranes in 12-well assay plates. Details of the plates and their certification are shown below. The permeability assay buffer was Hanks' balanced salt solution containing 10 mM HEPES and 15 mM glucose at a pH of 7.4. The buffer in the receiver chamber also contained 1% bovine serum albumin. The dosing solution concentration was 5 μM of test article in the assay buffer. Cell monolayers were dosed on the apical side (A-to-B) or basolateral side (B-to-A) and incubated at 37° C. with 5% CO2 in a humidified incubator. Samples were taken from the donor and receiver chambers at 120 minutes. Each determination was performed in duplicate. The flux of lucifer yellow was also measured post-experimentally for each monolayer to ensure no damage was inflicted to the cell monolayers during the flux period. All samples were assayed by LC-MS/MS using electrospray ionization. The apparent permeability (Papp) and percent recovery were calculated as follows: Papp=(dCr/dt)×Vr/(A×CA) (1) Percent Recovery=100×((Vr×Cr^final)+(Vd×Cd^final))/(Vd×CN) (2), where, dCr/dt is the slope of the cumulative receiver concentration versus time in μM s^−1; Vr is the volume of the receiver compartment in cm^3; Vd is the volume of the donor compartment in cm^3; A is the area of the insert (1.13 cm^2 for 12-well); CA is the average of the nominal dosing concentration and the measured 120-minute donor concentration in μM; CN is the nominal concentration of the dosing solution in μM; Cr^final is the cumulative receiver concentration in μM at the end of the incubation period; Cd^final is the concentration of the donor in μM at the end of the incubation period. Efflux ratio (ER) is defined as Papp (B-to-A)/Papp (A-to-B).

efflux ratio at 120 min, 5 μM | Papp A→B at 120 min, 5 μM | SMILES
2.27 | 17.5 ×10⁻⁶ cm/s | CC1(c2ccc(C#N)cc2F)Oc2cccc(N3CCN(Cc4nc5ccc(C(=O)O)cc5n4CC4(C#N)CC4)C4CC43)c2O1 (centres unmarked) [Compound 40, 2-((5-(2-(4-Cyano-2-fluorophenyl)-2-methylbenzo[d][1,3]dioxol-4-yl)-2,5-diazabicyclo[4.1.0]heptan-2-yl)methyl)-1-((1-cyanocyclopropyl)methyl)-1H-benzo[d]imidazole-6-carboxylic Acid]
1.71 | 27.9 ×10⁻⁶ cm/s | N#Cc1ccc(COc2cccc([C@@H]3CCN(Cc4nc5ccc(C(=O)O)cc5n4Cc4cncs4)[C@@H]4C[C@@H]43)n2)c(F)c1 (single isomer, unassigned) [Compound 5, 2-((5-(6-((4-Cyano-2-fluorobenzyl)oxy)pyridin-2-yl)-2-azabicyclo[4.1.0]heptan-2-yl)methyl)-1-(thiazol-5-ylmethyl)-1H-benzo[d]imidazole-6-carboxylic Acid]
1.31 | 16.8 ×10⁻⁶ cm/s | CC1(c2ccc(C#N)cc2F)Oc2cccc(C3CCN(Cc4nc5ccc(C(=O)O)cc5n4Cc4cncs4)CC3)c2O1 (centres unmarked) [Compound 18]
2.51 | 15 ×10⁻⁶ cm/s | N#Cc1ccc(COc2cccc(N3CCN(Cc4nc5ccc(C(=O)O)cc5n4Cc4cncs4)[C@@H]4C[C@@H]43)n2)c(F)c1 (single isomer, unassigned) [Compound 1, 2-((5-(6-((4-cyano-2-fluorobenzyl)oxy)pyridin-2-yl)-2,5-diazabicyclo[4.1.0]heptan-2-yl)methyl)-1-(thiazol-5-ylmethyl)-1H-benzo[d]imidazole-6-carboxylic Acid]
